Experimental data taken from paper PMC3389674, “Comparison of Soluble Guanylate Cyclase Stimulators and Activators in Models of Cardiovascular Disease Associated with Oxidative Stress” (Frontiers in Pharmacology, 2012).

Target: T1, OATP1B1 (Homo sapiens, UniProt Q9Y6L6)
T1 sequence (Q9Y6L6 1-691): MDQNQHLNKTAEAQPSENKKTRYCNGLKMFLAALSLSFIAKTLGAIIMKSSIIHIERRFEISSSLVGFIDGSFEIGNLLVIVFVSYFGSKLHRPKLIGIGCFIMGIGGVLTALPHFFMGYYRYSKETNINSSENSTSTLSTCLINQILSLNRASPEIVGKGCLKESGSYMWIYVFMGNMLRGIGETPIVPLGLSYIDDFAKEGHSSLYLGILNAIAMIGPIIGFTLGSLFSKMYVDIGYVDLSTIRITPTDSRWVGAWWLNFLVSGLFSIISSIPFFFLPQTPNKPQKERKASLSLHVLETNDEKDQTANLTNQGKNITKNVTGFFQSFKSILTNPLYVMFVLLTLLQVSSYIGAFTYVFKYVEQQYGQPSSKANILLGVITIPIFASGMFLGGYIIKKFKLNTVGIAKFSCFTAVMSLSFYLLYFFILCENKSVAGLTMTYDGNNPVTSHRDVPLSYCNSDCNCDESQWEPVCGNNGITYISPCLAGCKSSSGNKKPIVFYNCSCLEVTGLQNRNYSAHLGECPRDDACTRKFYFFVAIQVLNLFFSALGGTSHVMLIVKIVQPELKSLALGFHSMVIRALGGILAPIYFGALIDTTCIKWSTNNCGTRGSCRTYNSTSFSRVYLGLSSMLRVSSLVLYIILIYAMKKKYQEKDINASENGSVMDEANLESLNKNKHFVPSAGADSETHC
Assay: in vitro selectivity profile: OATP1B1 transporter activity
Assay type: cell-based
Protocol: The secondary pharmacological profile (i.e., sGC-independent activity) of GSK2181236A was assessed in cell-based functional assays by characterizing the interaction between GSK2181236A and 38 distinct human enzymes, ion channels, transporters, and G-protein-coupled receptors including 5-HT (5-HT1B/2A/2C/3), 5-HT transporter (SERT), adenosine (A2a), adrenergic (α1B/2C, β2), Aurora B kinase, cycoloxygenase-2 (COX-2), CaV1.2, cytochrome P450 (CYP2C19, 2D6, and 3A4), dopamine (D2), dopamine transporter (DAT), gamma-aminobutyric acid (GABAA), glycogen synthase kinase-3 (GSK3β) histamine (H1), KV1.5, KV7.1, KV11.1, lymphocyte-specific protein tyrosine kinase (LCK), L-monoamine oxidase (MAO-B) muscarinic (M1/2), NaV1.5, nicotinic (α1 nAChR), noradrenaline transporter (NET), opioid (κ, μ), organic anion transporting polypeptide C (OATP1B1), phosphodiesterase 5 (PDE5), phosphatidylinositol 3-kinase (PI3Kγ), pregnane X receptor (PXR), tachykinin (NK1), and vasopressin (V1a).

`Cc1cc(-c2ccc(OC(F)(F)F)cc2)ccc1COc1ccccc1-c1cccc(-n2ncc(C(=O)O)c2C(F)(F)F)n1` [GSK2181236A, 1-(6-{2-[({3-methyl-4′-[(trifluoromethyl)oxy]-4-biphenylyl}methyl)oxy]phenyl}-2-pyridinyl)-5-(trifluoromethyl)-1H-pyrazole-4-carboxylic acid] was tested. Which selectivity ratio (human, cell-based functional assay (human OATP1B1 transporter), vs P-VASP EC50 12.7 nM, read-out: selectivity for sGC over OATP1B1) did it give?
The selectivity ratio was 23.

What about the IC50 (read-out: IC50, inhibition of transporter activity) of the same compound?
Its IC50 is 300 nM.
